Assay results taken from US20050112573A1, “Method of detecting toxic substance” (priority 2001, published 2005).

Tested on: yeast genes (level of expressed mRNA)
Assay: DNA chip analysis of expressed mRNA of yeast genes after 2 h culture with a toxic chemical substance
Assay type: cell-based, Saccharomyces cerevisiae S288C
Description: Yeast (Saccharomyces cerevtisiae S288C (α SUC2mal mel gap2 CUP1)) were cultured at 25° C. on YPD medium (yeast extract 1%, polypepton 2%, glucose 2%). One of toxic chemical substances was added to the cell at logarithmic growth phase, and the cell was further cultured for two hours. Cell was cultured without any chemical substance in the same condition, and was used as control. Concentrations of the chemical substances were defined to inhibit the growth of the yeast but not lead to death.
After the completion of cultivation, the culture was centrifuged to collect the cells. To the cells, sodium acetate buffer (50 mM sodium acetate, 10 mM EDTA, 1% SDS) was added, and the mixture was shaken at 65° C. for five minutes, followed by returning to room temperature, and obtaining the supernatant, which procedure was repeated two times. To the supernatant, ½ amount of a solution of phenol/chloroform was added, and the mixture was centrifuged to give a supernatant, which was added with an equal amount of chloroform, and the mixture was centrifuged to give a supernatant. To the supernatant, an equal amount of isopropanol containing 0.3 M sodium acetate was added, and the mixture was allowed to stand at room temperature for 30 minutes, after which the mixture was centrifuged to give a sediment of the whole RNAs. Seventy % ethanol was added to the sediment, and the mixture was again centrifuged to give a sediment, which was then dried and dissolved in water. mRNA was isolated from the whole RNAs as followings. In view of the fact that a poly A chain is attached to the 3′ terminus of mRNA, a polynucleotide having a poly T structure which was immobilized on the surface of latex beads was used to trap the mRNA, and then the mRNA was washed and eluted with spine column (Oligotex-dT30<Super>mRNA Purification Kit, Takara). Reverse transcription of the mRNA was conducted with a reverse transcriptase (Super Script II Reverse Transcriptase; catalogue No. 18064-014, GibcoBRL) using fluorescence-labeled nucleotides to give cDNAs that were introduced with Cy3-dUTP or Cy5-dUTP during the reverse transcription.
The labeled cDNAs were dissolved in TE buffer (10 mM Tris-HCl/1 mM EDTA, pH8.0), and the solution was dropped on the DNA chip containing the whole genes of yeast (DNA Chip Research Inc. Japan) so that the cDNAs were hybridized on the DNA chip at 65° C. for over 12 hours. The fluoresces intensity of the DNA chip was read with a scanner, and the ratio relative to the fluorescence intensity resulting from the absence of chemical substance was estimated as the following, which is shown in Tables 1 to 9: [formula]
In the Tables, “Intensity” indicated in the rightmost column is a value of the level of expressed mRNA of each gene in control cells as divided by the average level of the expressions of the whole genes.

SMILES: COc1cc(CNC(=O)CCCCC=CC(C)C)ccc1O [(12), 8-methyl-N-vanillyl-6-nonenamide]
- The level of expressed mRNA in the presence of chemical substance/absence: YDR133C (gene YDR133C): 0.3
- The level of expressed mRNA in the presence of chemical substance/absence: YDR140W (gene YDR140W): 1.1
- The level of expressed mRNA in the presence of chemical substance/absence: YDR221W (gene YDR221W): 0.6
- The level of expressed mRNA in the presence of chemical substance/absence: YDR250C (gene YDR250C): 0.8
- The level of expressed mRNA in the presence of chemical substance/absence: YDR271C (gene YDR271C): 0.7
- The level of expressed mRNA in the presence of chemical substance/absence: YDR278C (gene YDR278C): 0.6
- The level of expressed mRNA in the presence of chemical substance/absence: YDR281C (gene YDR281C): 0.9
- The level of expressed mRNA in the presence of chemical substance/absence: YDR316W (gene YDR316W): 0.6
- The level of expressed mRNA in the presence of chemical substance/absence: YDR338C (gene YDR338C): 0.8
- The level of expressed mRNA in the presence of chemical substance/absence: YDR366C (gene YDR366C): 0.6
- level of expressed mRNA in the presence of chemical substance/in its absence (gene YDR380W): 0.4
- level of expressed mRNA in the presence of chemical substance/in its absence (gene YDR410C): 0.9
- The level of expressed mRNA in the presence of chemical substance/absence: YDR421W (gene YDR421W): 0.7
- The level of expressed mRNA in the presence of chemical substance/absence: YDR425W (gene YDR425W): 1.1
- The level of expressed mRNA in the presence of chemical substance/absence: YDR485C (gene YDR485C): 0.9
- level of expressed mRNA in the presence of chemical substance/in its absence (gene YDR487C): 1.3
- level of expressed mRNA in the presence of chemical substance/in its absence (gene YDR502C): 1.3
- The level of expressed mRNA in the presence of chemical substance/absence: YDR504C (gene YDR504C): 0.7
- level of expressed mRNA in the presence of chemical substance/in its absence (gene YEL011W): 1.5
- level of expressed mRNA in the presence of chemical substance/in its absence (gene YEL020C): 0.8
- The level of expressed mRNA in the presence of chemical substance/absence: YEL044W (gene YEL044W): 0.6
- level of expressed mRNA in the presence of chemical substance/in its absence (gene YER026C): 1.7
- level of expressed mRNA in the presence of chemical substance/in its absence (gene YER069W): 0.8
- The level of expressed mRNA in the presence of chemical substance/absence: YER092W (gene YER092W): 0.9
- The level of expressed mRNA in the presence of chemical substance/absence: YER182W (gene YER182W): 1.0
- The level of expressed mRNA in the presence of chemical substance/absence: YFL042C (gene YFL042C): 0.9
- level of expressed mRNA in the presence of chemical substance/in its absence (gene YFR015C): 0.4
- The level of expressed mRNA in the presence of chemical substance/absence: YFR026C (gene YFR026C): 0.6
- The level of expressed mRNA in the presence of chemical substance/absence: YFR056C (gene YFR056C): 0.5
- level of expressed mRNA in the presence of chemical substance/in its absence (gene YGL001C): 0.9
- level of expressed mRNA in the presence of chemical substance/in its absence (gene YGL022W): 0.7
- level of expressed mRNA in the presence of chemical substance/in its absence (gene YGL039W): 1.3
- The level of expressed mRNA in the presence of chemical substance/absence: YGL041C (gene YGL041C): 0.6
- The level of expressed mRNA in the presence of chemical substance/absence: YGL045W (gene YGL045W): 1.1
- The level of expressed mRNA in the presence of chemical substance/absence: YGL057C (gene YGL057C): 1.1
- The level of expressed mRNA in the presence of chemical substance/absence: YGL088W (gene YGL088W): 0.6
- level of expressed mRNA in the presence of chemical substance/in its absence (gene YGL104C): 1.1
- level of expressed mRNA in the presence of chemical substance/in its absence (gene YGL126W): 0.6
- level of expressed mRNA in the presence of chemical substance/in its absence (gene YGL134W): 0.9
- level of expressed mRNA in the presence of chemical substance/in its absence (gene YGL154C): 0.9
- The level of expressed mRNA in the presence of chemical substance/absence: YGL183C (gene YGL183C): 0.9
- level of expressed mRNA in the presence of chemical substance/in its absence (gene YGL209W): 1.3
- The level of expressed mRNA in the presence of chemical substance/absence: YGL223C (gene YGL223C): 0.9
- level of expressed mRNA in the presence of chemical substance/in its absence (gene YGL253W): 1.2
- The level of expressed mRNA in the presence of chemical substance/absence: YGR038W (gene YGR038W): 1.0
- level of expressed mRNA in the presence of chemical substance/in its absence (gene YGR060W): 1.0
- The level of expressed mRNA in the presence of chemical substance/absence: YGR139W (gene YGR139W): 0.5
- The level of expressed mRNA in the presence of chemical substance/absence: YGR156W (gene YGR156W): 1.2
- The level of expressed mRNA in the presence of chemical substance/absence: YGR198W (gene YGR198W): 0.7
- The level of expressed mRNA in the presence of chemical substance/absence: YGR210C (gene YGR210C): 0.6
- The level of expressed mRNA in the presence of chemical substance/absence: YGR211W (gene YGR211W): 0.6
- The level of expressed mRNA in the presence of chemical substance/absence: YGR237C (gene YGR237C): 0.8
- The level of expressed mRNA in the presence of chemical substance/absence: YGR243W (gene YGR243W): 1.2
- The level of expressed mRNA in the presence of chemical substance/absence: YGR250C (gene YGR250C): 0.6
- The level of expressed mRNA in the presence of chemical substance/absence: YGR266W (gene YGR266W): 0.6
- The level of expressed mRNA in the presence of chemical substance/absence: YGR277C (gene YGR277C): 0.9
- level of expressed mRNA in the presence of chemical substance/in its absence (gene YGR282C): 1.3
- The level of expressed mRNA in the presence of chemical substance/absence: YGR293C (gene YGR293C): 1.0
